In patent publication US20040204746A1, “Enhanced bioavailability of nutrients, pharmaceutical agents, and other bioactive substances through laser resonant homogenization or modification of molecular shape or crystalline form” (priority 1999, published 2004):

Experiments:
[1] = test system: subjects that had just survived a first myocardial infarction; conditions: betaine 9 grams daily plus vitamin B12, liver extract, creatine precursor; placebo 25%; cited from earlier work
[2] = test system: liver SAMe; conditions: animal studies; cited from earlier work
[3] = test system: person with relapsing lupus; assay: Case report: relapsing lupus treated with the methylation formula; type: in vivo, human; conditions: before the formula
Description: The exemplary patient had suffered with relapsing lupus for several years. At the time of entry into the methylation formula studies of EXAMPLE 6, they had experienced a relapse of severe disease for several months.
Their disease was characterized by exquisitely tender blistering and ulcerating lesions on their hands and feet that made it difficult to walk or open a cabinet door without severe pain. Their skin was pallid, they were extremely fatigued with a chronic low energy state, and had suffered extensive hair loss. Their sedimentation rate, a marker for systemic inflammation, was highly elevated at 99, whereas a normal level would be 0-30. […] They declined the use of corticosteroids due to severe treatment side effects during a prior relapse.
The subject was randomized to the placebo control group and for 3 months had no improvement in condition. In the second phase of the study, they were placed on a high dose of the methylation formula of 6 grams of laser treated betaine plus cofactors daily. […]
The subject continued on a lower dose of the laser treated methylation formula for 5 more months, reduced to 1-2 grams of the laser treated betaine plus cofactors. […] At the end of fifth month of lower dose treatment, their sedimentation rate had dropped to the very low normal value of 1, the lowest level ever recorded for them.

[4] = test system: murine macrophages; assay: Nitrite (nitric oxide) production by LPS-stimulated murine macrophages; type: cell-based; conditions: 24 hours; for nitric oxide byproducts compared with control untreated Arg #4: 120 mcg/ml; for Nitrites: determined from optical density; for Nitrites / Mean O.D. ± S.D.: 120 mcg/ml arginine, LPS 1 ng/ml; for Mean O.D. ± S.D.: optical density at 540 nm
Description: Paracelsian in Ithaca, N.Y., an outside independent lab, performed the following bioassays. Each arginine sample was added to 12 wells of murine macrophages to achieve a concentration of 120 mcg/ml. This is the estimated serum concentration for a 70 Kg person after ingesting a 6-gram serving of arginine, a level observed in numerous clinical studies to be associated with a wide range of physiologic benefits. LPS at 1 ng/ml was added to each well and the cells were incubated for 24 hours. The nitrite concentration in each well's supernatant was determined 24 hours after initiation of treatment as a relative measure of nitric oxide production.
The results are listed in order of relative nitrite production, from greatest to least. The first column is the Arg #, the second the mean plus or minus the standard deviation of the optical density measurement at 540 nm, a measure of nitrite concentration, and the third column the relative production of nitrites expressed in micrograms per ml as determined from optical density.

[5] = 1600 mg per day, cited from earlier work
[6] = test system: subject with osteoarthritis; assay: Pilot test: blood SAMe level and knee pain in a subject with osteoarthritis; type: in vivo, human
Description: As a pilot test, a subject with osteoarthritis had blood SAMe levels measured while taking SAMe and then while taking a betaine formulation. […] On this level of SAMe ingestion for three months, their blood SAMe level was 4.9 (the normal range for this lab is 4.2-8.2). At this time, SAMe was discontinued and they started a methylation formula with one gram of laser treated betaine plus laser treated metabolic cofactors. The betaine and metabolic co-factors were in the same ratios as in the double blind clinical study formula to be described below.

[7] = test system: murine macrophages; assay: TNF-alpha production by Echinacea-stimulated murine macrophages (ELISA); type: cell-based; conditions: 24 hours, samples at 20 mg/ml with Echinacea
Description: An independent outside lab, Paracelsian in Ithaca, N.Y., performed the following bioassays. A standardized Echinacea sample alone or with 20 mg/ml of Samples 1, 2, or 3 were incubated in the tissue culture media of triplicate wells of murine macrophages for 24 hours after Echinacea stimulation and then assayed for tumor necrosis factor-alpha (TNF-alpha) production in triplicate ELISA wells. Positive controls with lipopolysaccharide (LPS) at 1 ng/ml and negative controls were also assayed in the same manner.
Those skilled in the art will appreciate that the use of murine macrophages simulates the body's immune response. Adding the herb Echinacea provides a similar response to that of an immune system that is being irritated. A TNF-alpha reading is a good marker for the extent of inflammation. Thus a substance that causes a significant increase in TNF-alpha in the macrophages can be expected to create substantial inflammation in a human body—especially a body suffering from an autoimmune disease such as inflammatory bowel disease, as well as other physiological problems such as systemic lupus erythematosus, rheumatoid arthritis and food allergies.

Molecule | nitric oxide byproducts compared with control untreated Arg #4 [4] | Nitrites [4] [micrograms per ml] | Mean O.D. ± S.D. [4] | also measured
C[N+](C)(C)CC(=O)O [betaine, N,N,N-trimethylglycine] |  |  |  | mortality after one year [1]: no mortality; rise of liver SAMe levels [2]: up to fourfold
CCN(CCO)CCCC(C)Nc1ccnc2cc(Cl)ccc12 (stereo not shown) [Plaquenil] |  |  |  | relief of lupus symptoms [3]: did little to relieve their symptoms
N=C(N)NCCC[C@H](N)C(=O)O [Arg #1, L-arginine] | statistically significantly less nitric oxide byproducts | 10.6 | .215 ± .007 | 
N=C(N)NCCC[C@H](N)C(=O)O [Arg #4, L-arginine] |  | 11.4 | .224 ± .006 | 
N=C(N)NCCC[C@H](N)C(=O)O [Arg #3, L-arginine] | statistically significantly more nitric oxide byproducts | 12.0 | .232 ± .010 | 
C[S+](CC[C@H](N)C(=O)O)C[C@H]1O[C@@H](n2cnc3c(N)ncnc32)[C@H](O)[C@@H]1O (stereo partly shown) [SAMe, S-adenosyl-methionine] |  |  |  | side effects [5]: essentially free of side effects; onset of anti-depressant effects ([5]; tricyclics 4-6 weeks): within one week; blood SAMe level ([6]; 800 mg of SAMe daily for three months, normal range 4.2-8.2): 4.9; knee pain ([6]; osteoarthritis): moderate degree of relief
N=C(N)NCCC[C@H](N)C(=O)O [Arg #2, L-arginine] | statistically significantly less nitric oxide byproducts | 10.8 | .219 ± .008 | 
lipopolysaccharide [LPS 1 ng/ml Control] |  |  |  | TNF-alpha ± S.D. [7]: 2863 ± 185.7
